Measured values from the CheMixHub viscosity set.

Assay: xn = mol fraction of the nth substance listed

CCC(C)(C)OC + CO
298.15 K, 101.33 kPa
Conditions | viscosity [mPa·s]
x1 = 0.005 | 0.55
x1 = 0.0339 | 0.554
x1 = 0.0488 | 0.556
x1 = 0.0714 | 0.557
x1 = 0.1129 | 0.555
x1 = 0.1508 | 0.552
x1 = 0.1987 | 0.546
x1 = 0.2009 | 0.546
x1 = 0.2338 | 0.541
x1 = 0.2861 | 0.532
x1 = 0.3409 | 0.524
x1 = 0.379 | 0.516
x1 = 0.4252 | 0.508
x1 = 0.4676 | 0.5
x1 = 0.5142 | 0.491
x1 = 0.5503 | 0.486
x1 = 0.6236 | 0.477
x1 = 0.6574 | 0.473
x1 = 0.6944 | 0.468
x1 = 0.7437 | 0.462
x1 = 0.7936 | 0.457
x1 = 0.8642 | 0.45
x1 = 0.9029 | 0.446

CCCCCCCCO + CO
viscosity [mPa·s], 101 kPa
Conditions | 298.15 K | 308.15 K | 318.15 K
x2 = 0.05 | 6.856 | 4.941 | 3.665
x2 = 0.1 | 6.367 | 4.633 | 3.463
x2 = 0.15 | 5.895 | 4.331 | 3.263
x2 = 0.2 | 5.44 | 4.035 | 3.065
x2 = 0.25 | 5.002 | 3.746 | 2.87
x2 = 0.3 | 4.581 | 3.464 | 2.676
x2 = 0.35 | 4.176 | 3.189 | 2.485
x2 = 0.4 | 3.789 | 2.921 | 2.296
x2 = 0.45 | 3.418 | 2.661 | 2.11
x2 = 0.5 | 3.064 | 2.41 | 1.927
x2 = 0.55 | 2.727 | 2.166 | 1.748
x2 = 0.6 | 2.408 | 1.933 | 1.573
x2 = 0.65 | 2.106 | 1.708 | 1.403
x2 = 0.7 | 1.823 | 1.495 | 1.239
x2 = 0.75 | 1.559 | 1.292 | 1.081
x2 = 0.8 | 1.314 | 1.101 | 0.9299
x2 = 0.85 | 1.089 | 0.9227 | 0.787
x2 = 0.9 | 0.8845 | 0.7578 | 0.6532
x2 = 0.95 | 0.7018 | 0.6071 | 0.5296

BrC(Br)Br + COC(C)=O
viscosity [mPa·s], 101 kPa
Conditions | x1 = 0.0997 | x1 = 0.1981 | x1 = 0.2985 | x1 = 0.406 | x1 = 0.5052 | x1 = 0.6046 | x1 = 0.7016 | x1 = 0.7984 | x1 = 0.89
298.15 K | 0.4806 | – | 0.7148 | 0.8716 | 1.039 | 1.215 | 1.403 | 1.6 | 1.783
303.15 K | 0.4671 | 0.5871 | 0.6791 | 0.8247 | 0.9763 | 1.141 | 1.297 | 1.5 | 1.671
308.15 K | 0.4465 | 0.5511 | 0.6431 | 0.7797 | 0.9244 | 1.07 | 1.207 | 1.405 | 1.57
313.15 K | 0.4263 | 0.511 | 0.6007 | 0.7368 | 0.8701 | 1.009 | 1.141 | 1.317 | 1.471
